Among the data in patent publication US20220289727A1, “ENZYME INHIBITORS” (KALVISTA PHARMACEUTICALS LIMITED, priority 2019, published 2022) are IC50 values, retold here.

The structures appear in SMILES notation.

The target of one assay is T1, Human FXIa (Homo sapiens, UniProt P03951).
T1 construct: Human FXIa (Enzyme Research Laboratories) was incubated; purchased Enzyme Research Laboratories
Kind of assay: Determination of FXIa inhibitory activity in vitro (fluorogenic substrate Z-Gly-Pro-Arg-AFC). It counts as biochemical. To be noted: selectivity, 25° C., residual enzyme activity (initial rate).

Another assay deals with T2, Human Factor XIIa (Homo sapiens, UniProt P00748).
T2 construct: Human Factor XIIa (Enzyme Research Laboratories) was incubated; purchased Enzyme Research Laboratories
T2 sequence (P00748 373-615 limits assumed): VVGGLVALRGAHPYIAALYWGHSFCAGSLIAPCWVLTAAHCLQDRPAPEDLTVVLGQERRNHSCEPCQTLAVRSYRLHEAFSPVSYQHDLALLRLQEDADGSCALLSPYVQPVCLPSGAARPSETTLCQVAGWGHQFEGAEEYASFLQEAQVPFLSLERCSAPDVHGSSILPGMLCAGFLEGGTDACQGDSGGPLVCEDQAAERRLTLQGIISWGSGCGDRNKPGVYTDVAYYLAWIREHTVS
T2 sequence (P00748 20-372 partner limits assumed): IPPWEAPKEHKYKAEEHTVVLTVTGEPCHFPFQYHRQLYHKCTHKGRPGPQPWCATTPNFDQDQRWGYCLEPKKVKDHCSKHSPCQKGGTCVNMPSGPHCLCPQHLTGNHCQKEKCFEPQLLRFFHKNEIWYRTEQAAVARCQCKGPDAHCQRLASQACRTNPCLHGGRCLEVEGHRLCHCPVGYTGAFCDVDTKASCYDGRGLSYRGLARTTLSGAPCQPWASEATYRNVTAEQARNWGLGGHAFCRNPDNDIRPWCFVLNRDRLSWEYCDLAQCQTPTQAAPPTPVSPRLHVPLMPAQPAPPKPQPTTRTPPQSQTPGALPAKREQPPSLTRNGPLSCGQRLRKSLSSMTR
As to the kind of experiment: Determination of FXIIa inhibitory activity in vitro (fluorogenic substrate H-DPro-Phe-Arg-AFC). It counts as biochemical. To be noted: 25° C., residual enzyme activity (initial rate).

T1 sequence (P03951 388-625 limits assumed): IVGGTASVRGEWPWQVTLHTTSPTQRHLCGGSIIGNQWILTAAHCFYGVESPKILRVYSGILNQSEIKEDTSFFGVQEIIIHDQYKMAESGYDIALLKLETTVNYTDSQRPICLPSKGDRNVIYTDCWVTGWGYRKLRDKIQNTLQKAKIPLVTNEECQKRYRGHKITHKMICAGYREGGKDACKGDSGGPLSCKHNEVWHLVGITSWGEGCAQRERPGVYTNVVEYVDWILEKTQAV
T1 sequence (P03951 19-387 partner limits assumed): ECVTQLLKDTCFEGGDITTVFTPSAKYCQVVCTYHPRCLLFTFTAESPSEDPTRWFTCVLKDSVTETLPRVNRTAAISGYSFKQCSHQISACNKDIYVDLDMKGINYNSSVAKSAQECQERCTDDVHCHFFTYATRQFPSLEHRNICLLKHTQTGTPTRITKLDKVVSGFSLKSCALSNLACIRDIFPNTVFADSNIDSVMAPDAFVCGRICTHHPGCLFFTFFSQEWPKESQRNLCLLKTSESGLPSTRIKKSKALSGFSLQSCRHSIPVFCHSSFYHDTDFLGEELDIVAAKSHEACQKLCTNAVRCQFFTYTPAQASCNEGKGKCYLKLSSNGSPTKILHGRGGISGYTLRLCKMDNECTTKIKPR

For `CCN1CCC(Cn2c(C(=O)NCc3ccc4c(N)nccc4c3)nc3ccccc32)CC1` [Example 25.202], the results for the 50% inhibitory concentration (IC50) on Human FXIa and at Human Factor XIIa were greater than 40 µM and 1 to 3 µM, respectively.
The matching figures for `CCn1c(C(=O)NCc2ccc3c(N)nccc3c2)cc(C)c1CN1CCN(c2ccncc2)CC1` [Example 51.02, N-[(1-Amino-6-isoquinolyl)methyl]-1-ethyl-4-methyl-5-[[4-(4-pyridyl)piperazin-1-yl]methyl]pyrrole-2-carboxamide]: 12.4 µM and 10 to 40 µM.
In the same order, the values of `Cc1cc(CN)cc(C)c1CNC(=O)c1cc(Cl)c(C)s1` [Example 25.102, N-(4-(Aminomethyl)-2,6-dimethylbenzyl)-4-chloro-5-methylthiophene-2-carboxamide] are greater than 40 µM and 3 to 10 µM.
In the same order, the values of `CN1CCC(Cn2c(C(=O)NCc3ccc4c(N)nccc4c3)cc3ccccc32)CC1` [Example 25.201] are greater than 40 µM and 3 to 10 µM.
Consider `Nc1nccc2c1CC[C@H]2NC(=O)c1cc(Cl)c(CN2CCN(c3ccncc3)CC2)s1` [Example 5.23, N-[(5R)-1-Amino-6,7-dihydro-5H-cyclopenta[c]pyridin-5-yl]-4-chloro-5-[[4-(4-pyridyl)piperazin-1-yl]methyl]thiophene-2-carboxamide], for which the IC50 at Human FXIa is 8.35 µM; on Human Factor XIIa, 10 to 40 µM.
The matching figures for `Cc1cc(C(=O)NCc2ccc3c(N)nccc3c2)sc1CN1CCN(c2cnn(C)c2)CC1` [Example 5.28]: greater than 40 µM and 10 to 40 µM.
In the case of `CN1CCC(Cc2sc(C(=O)NCc3ccc4c(N)nccc4c3)cc2Cl)CC1` [Example 25.10], the IC50 at Human FXIa is greater than 40 µM; against Human Factor XIIa it was 3 to 10 µM.
The matching figures for `Nc1nccc2cc(CNC(=O)c3cc(Cl)nn3CC3CCNCC3)ccc12` [Example 35.02]: greater than 40 µM and 3 to 10 µM.
In the case of `Cc1cc(C(=O)NCc2ccc3c(N)nccc3c2)sc1CN1CCN(c2cc[nH]c(=O)c2)CC1` [Example 5.29], the half-inhibitory concentration (IC50) on Human FXIa is 38.5 µM; at Human Factor XIIa, 10 to 40 µM.
As for `Cc1c(Cl)sc(C(=O)NCc2ccc3c(N)nccc3c2)c1NCC1CCN(C)CC1` [Example 26.09], the IC50 on Human FXIa was greater than 40 µM; against Human Factor XIIa, 1 to 3 µM.
On to `Nc1nccc2cc(CNC(=O)c3cc(Cl)c(Cc4ccccc4)s3)ccc12` [Example 25.08], for which the figures for the IC50 at Human FXIa and against Human Factor XIIa were greater than 40 µM and 10 to 40 µM, respectively.
In the same order, the values of `CN1CCC(CCn2nc(Cl)cc2C(=O)NCc2ccc3c(N)nccc3c2)CC1` [Example 35.04, N-((1-Aminoisoquinolin-6-yl)methyl)-3-chloro-1-(2-(1-methylpiperidin-4-yl)ethyl)-1H-pyrazole-5-carboxamide] are greater than 40 µM and less than 1 µM.
In the same order, the values of `CN1CCC(CNc2cnn(C)c2C(=O)NCc2ccc3c(N)nccc3c2)CC1` [Example 26.01] are greater than 40 µM and 3 to 10 µM.
Take `Cc1csc(C(=O)NCc2ccc3c(N)nccc3c2)c1NC(=O)C1CCN(C)CC1` [Example 26.07]: the IC50 is greater than 40 µM at Human FXIa and 10 to 40 µM against Human Factor XIIa.
On to `Nc1nccc2cc(CNC(=O)c3cc(Cl)c(CN4CCN(c5cccnc5)CC4)s3)ccc12` [Example 5.16], for which the IC50 is greater than 40 µM on Human FXIa and 3 to 10 µM against Human Factor XIIa.
In the same order, the values of `Cc1cc(NCC2CCN(C)CC2)c(C(=O)NCc2ccc3c(N)nccc3c2)s1` [Example 26.05, N-((1-Aminoisoquinolin-6-yl)methyl)-5-methyl-3-(((1-methylpiperidin-4-yl)methyl)amino) thiophene-2-carboxamide] are greater than 40 µM and 1 to 3 µM.
The matching figures for `Cc1n[nH]c(C(=O)NCc2ccc3c(N)nccc3c2)c1NCC1CCN(C)CC1` [Example 26.02]: greater than 40 µM and 10 to 40 µM.
In the same order, the values of `CCN1CCC(Cn2nc(Cl)cc2C(=O)NCc2ccc3c(N)nccc3c2)CC1` [Example 35.03] are greater than 40 µM and 3 to 10 µM.
With `Cc1cc(C(=O)NCc2ccc3c(N)nccc3c2)nn1CC1CCN(c2ccncc2)CC1` [Example 51.04], the figures for the IC50 at Human FXIa and against Human Factor XIIa were greater than 40 µM and 3 to 10 µM, respectively.
Turning to `CNS(=O)(=O)c1sc(C(=O)NCc2ccc3c(N)nccc3c2)cc1Br` [Example 25.07], the values for the IC50 against Human FXIa and against Human Factor XIIa were greater than 40 µM and 1 to 3 µM, respectively.
The matching figures for `Nc1nccc2cc(CNC(=O)c3cc(Cl)c(CNCc4ccc(N5CCCC5=O)cc4)s3)ccc12` [Example 2.58]: greater than 40 µM and 3 to 10 µM.
In the same order, the values of `Cc1cc(C(=O)NCc2ccc3c(N)nccc3c2)sc1CN1CCN(c2ccn(C)c(=O)c2)CC1` [Example 5.27] are greater than 40 µM and 10 to 40 µM.
For the compound `Nc1nccc2cc(CNC(=O)c3cc(Cl)c(CN4Cc5ccncc5C4)s3)ccc12` [Example 5.19], the IC50 was 29.3 µM against Human FXIa and 3 to 10 µM on Human Factor XIIa.
In the same order, the values of `CN1CCC(c2ccc(C(=O)NCc3ccc4c(N)nccc4c3)s2)CC1` [Example 25.09] are greater than 40 µM and 10 to 40 µM.
For `CN1CCC(CCn2nc(C(=O)NCc3ccc4c(N)nccc4c3)cc2Cl)CC1` [Example 51.05, N-((1-Aminoisoquinolin-6-yl)methyl)-5-chloro-1-(2-(1-methylpiperidin-4-yl)ethyl)-1H-pyrazole-3-carboxamide], the values for the IC50 against Human FXIa and against Human Factor XIIa were greater than 40 µM and less than 1 µM, respectively.
In the same order, the values of `COCc1c(C(=O)NCc2cnc3[nH]cc(Cl)c3c2)cnn1Cc1cc2c(cc1F)CCN(C)C2` [Example 69.01, N-((3-Chloro-1H-pyrrolo[2,3-b]pyridin-5-yl)methyl)-1-((6-fluoro-2-methyl-1,2,3,4-tetrahydroisoquinolin-7-yl)methyl)-5-(methoxymethyl)-1H-pyrazole-4-carboxamide] are greater than 40 µM and 1 to 3 µM.
The matching figures for `Nc1nccc2cc(CNC(=O)c3cc4c(Cl)cccc4[nH]3)ccc12` [Example 25.207]: greater than 40 µM and 1 to 3 µM.
In the same order, the values of `Nc1nccc2cc(CNC(=O)c3cc(Cl)c(CN4CCN(c5ccncc5)CC4)s3)ccc12` [Example 5.12] are greater than 40 µM and 3 to 10 µM.
For the compound `CN1CCC(CNc2csc(C(=O)NCc3ccc4c(N)nccc4c3)c2)CC1` [Example 25.17], at Human Factor XIIa, the IC50 was 10 to 40 µM.
Still for that read-out and setting: the same measure for `CN1CCC(CNCc2sc(C(=O)NCc3ccc4c(N)nccc4c3)cc2Cl)CC1` [Example 2.20]: 3 to 10 µM; for `N#Cc1cccc(CNCc2sc(C(=O)NCc3ccc4c(N)nccc4c3)cc2Cl)c1` [Example 2.15]: 10 to 40 µM; for `CN1CCC(CNc2ccsc2C(=O)NCc2ccc3c(N)nccc3c2)CC1` [Example 26.13]: 3 to 10 µM.
Same read-out and setting: the value for `Nc1nccc2cc(CNC(=O)c3cc(Cl)c(COCCC4CCOCC4)s3)ccc12` [Example 7.12] was 10 to 40 µM; that for `Nc1nccc2cc(CNC(=O)c3cc(Cl)c(CNCc4ccccn4)s3)ccc12` [Example 2.30] was 10 to 40 µM.
Same read-out and setting: the same measure for `Nc1nccc2cc(CNC(=O)c3cc(Cl)c(COCc4ccccn4)s3)ccc12` [Example 7.10]: 10 to 40 µM; for `CC(=O)Nc1cccc(NCc2sc(C(=O)NCc3ccc4c(N)nccc4c3)cc2Cl)c1` [Example 2.55]: 10 to 40 µM.
In the case of `CN1CCC(CCCn2ccc(C(=O)NCc3ccc4c(N)nccc4c3)n2)CC1` [Example 51.07], at Human Factor XIIa, the IC50 fell in the range of 1 to 3 µM.
